Test results as given in patent US20230174571A1, “METHOD OF TREATING SHIP1-MEDIATED DISEASES USING PELOROL DERIVATIVES” (Zebrapeutics Inc., priority 2020, published 2023).

What was measured:
LPS-induced TNFα = test: Mouse endotoxemia model: serum TNFα after i.p. LPS; format: in vivo; settings: 1 h
Procedure: Mouse Endotoxemia Model. Groups of 6-8 week old BALB/c SHIP1+/+ and SHIP1−/−mice were intraperitoneally injected with either 1 or 5 mg/kg of LPS with or without co-administration of 1 mg/kg of IL10. Blood was drawn 1 hour later by cardiac puncture for determination of plasma cytokine levels by ELISA. ELISA kits were purchased from BD Biosciences (Mississauga, ON) for TNFα.
A role for STAT3 in mediating IL10 inhibition of TNFα in vivo was first described by Takeda et al (Takeda et al., 1999). […] This implies that a protein other than STAT3 might contribute to IL10 action. […] Presently, the ability of IL10 to inhibit LPS-induced inflammatory cytokine/chemokine expression in vivo is shown (FIG. 1A) in SHIP1^+/+ and SHIP1^−/− mice, and found IL10 inhibited TNFα in SHIP1^+/+ but not SHIP1^−/− mice. It was previously shown that SHIP1 phosphatase activity is allosterically stimulated by its product PI(3,4)P2 (Ong et al., 2007). […] Presently, it is shown that compound I-1 inhibits LPS-induced TNFα in SHIP1^+/+ but not SHIP1^−/− mice, showing that these compounds can mimic anti-inflammatory properties of IL10 and is indeed specific for SHIP1 (FIG. 1B).
Data represent means of *p<0.05, **p<0.01 when compared with LPS-alone-stimulated mice, ns=not significant. […] Fractions were collected every 5 min for measurement of TNFα levels Data are representative of two independent experiments.

[1] = target: T1, Clover-SHIP1 and mRuby2-STAT3 (Mus musculus, UniProt Q9ES52); test: Acceptor photobleaching FRET analysis; format: cell-based; settings: J17 SHIP1−/− cells expressing Clover-SHIP1/mRuby2-STAT3; 1 minute; 100 ng/ml IL10, IL6 or 20 μM I-2
T1 construct: expressed in transfected cells; host or cells: J17 (SHIP1-/- mouse macrophage line), lentiviral transduction
Procedure: Acceptor Photobleaching FRET analysis. J17 cells expressing Clover-SHIP1 and/or mRuby2-STAT3 were seeded at 50×10^4 cells per well in 8-well Ibidi p-Slides (Ibidi GmbH, Martinsried, Germany). After overnight incubation, cells were serum-starved with Mac media containing 1% serum for 3 hours before media replacement with Leibovitz's (L-15) media (Invitrogen, Burlington, ON) supplemented with 1% serum, 10 μM β-mercaptoethanol, 150 μM monothioglycolate and 1 mM L-glutamine for confocal microscopy imaging. Cells were imaged on a Leica SP8X on DMi8 confocal microscope system with a 63×/1.3 Gly HC PL APO CS2 objective using a white light laser line with 488 nm for donor excitement and 555 nm for acceptor excitement. Photobleaching FRET analysis was performed by measuring Clover-SHIP1 donor fluorescence intensity before and after bleaching the acceptor, mRuby2-STAT3, within a field of cells ‘region of interest’ (ROI), at 100% laser intensity for 60 frames. Acceptor photobleaching was performed first in resting cells then at 1 minute (±5 seconds) following ‘mock’ stimulation with L-15 media, or L-15 media containing 100 ng/ml IL10, IL6 or 20 μM compound I-2. Donor and acceptor fluorescence intensity of individual cells within the bleached ROI was quantified before and after bleaching. Percentage FRET efficiency was calculated as % FRETeff=100×(Dpost−Dpre)/Dpost where Dpre and Dpost represent Clover-SHIP1 donor fluorescence intensity before and after bleaching, respectively.

T1 sequence (Q9ES52 whole entry): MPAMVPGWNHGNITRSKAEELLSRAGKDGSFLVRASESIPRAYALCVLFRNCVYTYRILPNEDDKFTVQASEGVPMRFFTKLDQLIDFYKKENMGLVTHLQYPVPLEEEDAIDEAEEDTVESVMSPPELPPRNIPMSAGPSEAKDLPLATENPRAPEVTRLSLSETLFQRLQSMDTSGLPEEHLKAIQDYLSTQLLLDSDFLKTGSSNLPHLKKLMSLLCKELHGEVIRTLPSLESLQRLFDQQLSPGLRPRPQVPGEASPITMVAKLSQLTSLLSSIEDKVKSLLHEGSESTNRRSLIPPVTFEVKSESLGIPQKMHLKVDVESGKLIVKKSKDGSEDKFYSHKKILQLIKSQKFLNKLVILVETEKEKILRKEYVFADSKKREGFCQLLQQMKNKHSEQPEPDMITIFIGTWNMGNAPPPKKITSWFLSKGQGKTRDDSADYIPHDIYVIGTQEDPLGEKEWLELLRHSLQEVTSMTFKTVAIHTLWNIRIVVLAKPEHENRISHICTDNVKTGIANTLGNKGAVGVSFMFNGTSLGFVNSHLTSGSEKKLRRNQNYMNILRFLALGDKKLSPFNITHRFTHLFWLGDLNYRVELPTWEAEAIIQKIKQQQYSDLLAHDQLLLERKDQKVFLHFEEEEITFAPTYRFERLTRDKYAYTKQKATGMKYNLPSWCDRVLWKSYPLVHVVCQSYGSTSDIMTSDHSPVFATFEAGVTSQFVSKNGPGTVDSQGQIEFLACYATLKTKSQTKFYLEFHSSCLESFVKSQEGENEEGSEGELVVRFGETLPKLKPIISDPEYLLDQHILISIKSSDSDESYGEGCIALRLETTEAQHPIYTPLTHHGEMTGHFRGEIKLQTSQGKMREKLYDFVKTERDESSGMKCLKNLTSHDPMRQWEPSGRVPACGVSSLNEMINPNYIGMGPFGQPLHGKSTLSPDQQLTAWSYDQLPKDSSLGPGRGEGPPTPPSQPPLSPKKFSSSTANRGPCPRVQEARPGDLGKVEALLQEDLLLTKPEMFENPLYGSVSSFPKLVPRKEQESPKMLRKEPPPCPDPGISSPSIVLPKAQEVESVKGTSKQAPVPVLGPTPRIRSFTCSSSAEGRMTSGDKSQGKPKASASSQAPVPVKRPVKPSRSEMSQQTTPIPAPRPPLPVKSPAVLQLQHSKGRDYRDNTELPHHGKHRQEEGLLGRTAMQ
T1 sequence (P42227 whole entry partner): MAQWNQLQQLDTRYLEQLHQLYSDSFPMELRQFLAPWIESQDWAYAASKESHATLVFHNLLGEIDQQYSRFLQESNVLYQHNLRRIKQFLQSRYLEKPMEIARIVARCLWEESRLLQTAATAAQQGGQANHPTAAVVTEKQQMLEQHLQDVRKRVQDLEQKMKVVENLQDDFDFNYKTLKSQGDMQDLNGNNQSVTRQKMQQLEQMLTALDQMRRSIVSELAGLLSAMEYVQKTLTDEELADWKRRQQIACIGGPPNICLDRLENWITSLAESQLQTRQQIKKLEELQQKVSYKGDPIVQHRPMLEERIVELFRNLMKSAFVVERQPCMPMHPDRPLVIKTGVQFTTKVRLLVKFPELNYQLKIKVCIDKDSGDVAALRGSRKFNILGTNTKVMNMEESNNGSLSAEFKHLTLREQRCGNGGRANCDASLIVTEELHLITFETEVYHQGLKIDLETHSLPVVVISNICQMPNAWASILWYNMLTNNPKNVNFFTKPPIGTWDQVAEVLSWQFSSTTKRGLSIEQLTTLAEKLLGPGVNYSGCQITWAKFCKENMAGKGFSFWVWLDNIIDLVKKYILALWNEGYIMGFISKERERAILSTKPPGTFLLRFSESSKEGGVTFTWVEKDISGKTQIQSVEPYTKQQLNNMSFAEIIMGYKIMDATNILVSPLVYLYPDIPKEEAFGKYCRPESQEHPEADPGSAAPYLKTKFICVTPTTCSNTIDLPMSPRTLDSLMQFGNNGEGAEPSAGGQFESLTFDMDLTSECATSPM

Compound | LPS-induced TNFα (serum) (LPS-induced TNFα; SHIP1+/+ mice) | LPS-induced TNFα (serum) (LPS-induced TNFα; SHIP1−/− mice) | Clover-mRuby2 FRET signal [1]
Cc1cc(O)cc2c1C1(C)CCC3C(C)(C)CCCC3(C)C1C2 (stereo not drawn) [Compound I-1] | inhibits | not | 
CC12CCC3C(C)(C)C(N)CCC3(C)C1Cc1cc(O)cc(O)c12 (stereo not drawn) [Compound I-2] |  |  | increases
IL10: anti-inflammatory cytokine interleukin-10 | inhibited | not | increases
